What is called IC50 is the point on the concentration scale where inhibition reaches its midpoint.

Some results are limits rather than exact numbers.

Sequence of Proteasome chymotrypsin-like activity (S26 protein from RPMI8226 cells) (P28074 60-263 limits assumed): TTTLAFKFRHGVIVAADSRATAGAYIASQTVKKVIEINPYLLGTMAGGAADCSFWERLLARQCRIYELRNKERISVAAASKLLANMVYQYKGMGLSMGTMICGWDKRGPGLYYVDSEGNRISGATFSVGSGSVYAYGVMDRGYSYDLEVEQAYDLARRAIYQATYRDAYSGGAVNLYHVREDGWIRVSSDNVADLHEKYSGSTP

This experiment concerns the target Proteasome chymotrypsin-like activity (S26 protein from RPMI8226 cells) (Homo sapiens, UniProt P28074). It counts as biochemical. The conditions noted are these: S26 protein from RPMI8226 cell extract 2 ug/well, substrate 20 uM, 37° C., 90 minutes; read-out: Proteasome chymotrypsin-like activity inhibition IC50. As to the method: The abilities to inhibit the proteasome activity of the compounds described in the Examples of the present invention and boronic acid drugs were evaluated as follows.
RPMI8226 cells, which is a multiple myeloma cell line, were cultured and then separated by a centrifuge, and washed twice with phosphate buffered saline (PBS). 20 mM of a tris-HCl (pH 8.0) buffer solution was added to the washed cells, and the cells were disrupted by a homogenizer and centrifuged to obtain S26 protein from the supernatant. Suc-Leu-Leu-Val-Tyr-AMC, for a fluorogenic substrate for the chymotrypsin-like activity of the proteasome, and Z-Leu-Leu-Glu-AMC, for a fluorogenic substrate for the caspase-like activity, were purchased from Calbiochem, EMD Millipore and used. Into each well of a 96-well plate (opaque, black round bottom), 20 ul of the S26 protein (final RPMI8226 cell extract concentration: 2 ug/well), 10 ul of S26 proteasome inhibitor serially diluted from 10 uM (final DMSO concentration: 0.5%), and 20 ul of the fluorogenic substrate for the proteasome chymotrypsin-like or caspase-like activity (final concentration: 20 uM) were added and mixed and allowed to react in a 37° C. incubator for 90 minutes. The fluorescence of the fluorogenic substrate was measured by FlexStation II Fluorometer (Molecular Devices). The fluorescence inhibited by the compound diluted at each concentration was measured as the relative percentage value for the amount obtained from the treatment only with the S26 protein and the fluorogenic substrate. IC50 (inhibitory concentration 50) was expressed in terms of a concentration that inhibits 50% of the maximum fluorescence induced by the fluorogenic substrate.
As for `CC(C)C[C@H](NC(=O)C1(Cc2ccccc2)CC(CNC(=O)c2ccn(C(C)C)n2)=NO1)B(O)O` (stereo partly drawn) [Example 172, ((1R)-1-(5-benzyl-3-((1-isopropyl-1H-pyrazol-3-carboxamido)methyl)-4,5-dihydroisoxazol-5-carboxamido)-3-methylbutyl)boronic acid], the half-maximal inhibitory concentration (IC50) is < 10 nM. Take `CC(C)C[C@H](NC(=O)C1(Cc2ccccc2)CC(CNC(=O)c2cc3ccccc3s2)=NO1)B(O)O` (stereo partly drawn) [Example 93, ((1R)-1-(3-((benzo[b]thiophen-2-carboxamido)methyl)-5-benzyl-4,5-dihydroisoxazol-5-carboxamido)-3-methylbutyl)boronic acid]: the IC50 is < 10 nM. Turning to `CC(C)C[C@H](NC(=O)C1(Cc2ccccc2)CC(COc2ccccc2)=NO1)B(O)O` (stereo partly drawn) [Example 254], the concentration for half-maximal inhibition (IC50) is < 10 nM. Next, `CC(C)C[C@H](NC(=O)C1(Cc2ccccc2)CC(CNC(=O)C2CCCc3ccccc32)=NO1)B(O)O` (stereo partly drawn) [Example 108, ((1R)-1-(5-benzyl-3-((1,2,3,4-tetrahydronaphthalen-1-carboxamido)methyl)-4,5-dihydroisoxazol-5-carboxamido)-3-methylbutyl)boronic acid]: < 10 nM; `CC(C)C[C@H](NC(=O)C1(Cc2ccccc2)CC(CNC(=O)c2cocn2)=NO1)B(O)O` (stereo partly drawn) [Example 168, ((1R)-1-(5-benzyl-3-((oxazol-4-carboxamido)methyl)-4,5-dihydroisoxazol-5-carboxamido)-3-methylbutyl)boronic acid]: < 25 nM.

As for `CC(C)C[C@H](NC(=O)C1(Cc2ccccc2)CC(CNC(=O)CCc2ccccc2)=NO1)B(O)O` (stereo partly drawn) [Example 110, ((1R)-1-(5-benzyl-3-((3-phenylpropanamido)methyl)-4,5-dihydroisoxazol-5-carboxamido)-3-methylbutyl)boronic acid], the 50% inhibitory concentration (IC50) was < 25 nM.

Regarding `CC(C)C[C@H](NC(=O)C1(C)CC(c2ccccc2)=NO1)B(O)O` (stereo partly drawn) [Example 5, ((1R)-3-methyl-1-(5-methyl-3-phenyl-4,5-dihydroisoxazol-5-carboxamido)butyl)boronic acid], the IC50 was > 1000 nM. Next, `COc1ccc(C(=O)NCC2=NOC(Cc3ccccc3)(C(=O)N[C@@H](CC(C)C)B(O)O)C2)cc1` (stereo partly drawn) [Example 282]: < 10 nM; `Cc1nn(C)cc1C(=O)NCC1=NOC(Cc2ccccc2)(C(=O)N[C@@H](CC(C)C)B(O)O)C1` (stereo partly drawn) [Example 226, ((1R)-1-(5-benzyl-3-((1,3-dimethyl-1H-pyrazol-4-carboxamido)methyl)-4,5-dihydroisoxazol-5-carboxamido)-3-methylbutyl)boronic acid]: < 25 nM; `Cc1cccc(C(=O)N[C@@H](CC(C)C)C2=NOC(Cc3ccccc3)(C(=O)N[C@@H](CC(C)C)B(O)O)C2)n1` (stereo partly drawn) [Example 194, ((1R)-1-(5-benzyl-3-((S)-3-methyl-1-(6-methylpicolinamido)butyl)-4,5-dihydroisoxazol-5-carboxamido)-3-methylbutyl)boronic acid]: < 250 nM. With `CC(C)C[C@H](NC(=O)C1CC([C@@H](NC(=O)c2cccc3c2CCCC3)C(C)C)=NO1)B(O)O` (stereo partly drawn) [Example 66, ((1R)-3-methyl-1-(3-((S)-2-methyl-1-(5,6,7,8-tetrahydronaphthalen-1-carboxamido)propyl)-4,5-dihydroisoxazol-5-carboxamido)butyl)boronic acid], the concentration for half-maximal inhibition (IC50) was < 25 nM.

Take `CC(C)C[C@H](NC(=O)C1(Cc2ccccc2)CC(CNC(=O)c2cc3ccccc3cn2)=NO1)B(O)O` (stereo partly drawn) [Example 121, ((1R)-1-(5-benzyl-3-((isoquinolin-3-carboxamido)methyl)-4,5-dihydroisoxazol-5-carboxamido)-3-methylbutyl)boronic acid]: the IC50 is < 10 nM. Take `O=C(NCC1=NOC(Cc2ccccc2)(C(=O)N[C@@H](Cc2ccccc2)B(O)O)C1)c1cccc(C(F)(F)F)c1` (stereo partly drawn) [Example 281, ((1R)-1-(5-benzyl-3-((3-(trifluoromethyl)benzamido)methyl)-4,5-dihydroisoxazol-5-carboxamido)-2-phenylethyl)boronic acid]: the IC50 is < 10 nM. Next, `CC(C)C[C@H](NC(=O)C1(Cc2cscn2)CC(CNC(=O)c2nccc3ccccc23)=NO1)B(O)O` (stereo partly drawn) [Example 137, ((1R)-1-(3-((isoquinolin-1-carboxamido)methyl)-5-(thiazol-4-ylmethyl)-4,5-dihydroisoxazol-5-carboxamido)-3-methylbutyl)boronic acid]: < 10 nM; `O=C(NCC1=NOC(Cc2ccccc2)(C(=O)N[C@@H](Cc2ccccc2)B(O)O)C1)c1cccc2ccccc12` (stereo partly drawn) [Example 299, ((1R)-1-(3-((1-naphthamido)methyl)-5-benzyl-4,5-dihydroisoxazol-5-carboxamido)-2-phenylethyl)boronic acid]: < 10 nM; `CC(C)C[C@H](NC(=O)C1(C(O)c2ccccc2)CC(CNC(=O)c2nccc3ccccc23)=NO1)B(O)O` (stereo partly drawn) [Example 131, ((1R)-1-(5-(hydroxy(phenyl)methyl)-3-((isoquinolin-1-carboxamido)methyl)-4,5-dihydroisoxazol-5-carboxamido)-3-methylbutyl)boronic acid]: < 10 nM. Consider `CC(C)C[C@H](NC(=O)C1CC([C@H](CC(C)C)NC(=O)c2ccccc2)=NO1)B(O)O` (stereo partly drawn) [Example 104, ((1R)-1-(3-((S)-1-benzamido-3-methylbutyl)-4,5-dihydroisoxazol-5-carboxamido)-3-methylbutyl)boronic acid], for which the IC50 is < 100 nM. Next, `O=C(N[C@@H](Cc1ccccc1)B(O)O)C1(Cc2ccccc2)CC(COc2cccc(Cl)c2)=NO1` (stereo partly drawn) [Example 259, ((1R)-1-(5-benzyl-3-((3-chlorophenoxy)methyl)-4,5-dihydroisoxazol-5-carboxamido)-2-phenylethyl)boronic acid]: < 50 nM; `CC(C)C[C@H](NC(=O)C1(Cc2ccccc2)CC(CNC(=O)c2cccc3ncnn23)=NO1)B(O)O` (stereo partly drawn) [Example 312]: < 25 nM; `Cc1nn(C(C)C)c(C(=O)NCC2=NOC(Cc3ccccc3)(C(=O)N[C@@H](CC(C)C)B(O)O)C2)c1Cl` (stereo partly drawn) [Example 222, ((1R)-1-(5-benzyl-3-((4-chloro-1-isopropyl-3-methyl-1H-pyrazol-5-carboxamido)methyl)-4,5-dihydroisoxazol-5-carboxamido)-3-methylbutyl)boronic acid]: < 10 nM. Under `O=C(N[C@@H](Cc1ccccc1)B(O)O)C1(Cc2ccccc2)CC(COCc2cccc(Cl)c2)=NO1` (stereo partly drawn) [Example 261, ((1R)-1-(5-benzyl-3-(((3-chlorobenzyl)oxy)methyl)-4,5-dihydroisoxazol-5-carboxamido)-2-phenylethyl)boronic acid] stands < 25 nM.

As to `CC(C)C[C@H](NC(=O)C1(Cc2ccccc2)CC(COc2cccc(Cl)c2)=NO1)B(O)O` (stereo partly drawn) [Example 258], the half-inhibitory concentration (IC50) was < 10 nM.

As to `CC(C)C[C@H](NC(=O)C1(C(C)c2ccccc2)CC(CNC(=O)c2nccc3ccccc23)=NO1)B(O)O` (stereo partly drawn) [Example 136, ((1R)-1-(3-((isoquinolin-1-carboxamido)methyl)-5-(1-phenylethyl)-4,5-dihydroisoxazol-5-carboxamido)-3-methylbutyl)boronic acid], the half-maximal inhibitory concentration (IC50) is < 10 nM. With `COc1ccccc1C(=O)NCC1=NOC(C(=O)N[C@@H](CC(C)C)B(O)O)C1` (stereo partly drawn) [Example 103, ((1R)-1-(3-((2-methoxybenzamido)methyl)-4,5-dihydroisoxazol-5-carboxamido)-3-methylbutyl)boronic acid], the half-maximal inhibitory concentration (IC50) was < 50 nM. Next, `COc1cccc(-c2cccc(COCC3=NOC(Cc4ccccc4)(C(=O)N[C@@H](CC(C)C)B(O)O)C3)c2)c1` (stereo partly drawn) [Example 57, ((1R)-1-(5-benzyl-3-(((3′-methoxy-[1,1′-biphenyl]-3-yl)methoxy)methyl)-4,5-dihydroisoxazol-5-carboxamido)-3-methylbutyl)boronic acid]: < 25 nM. Next, `CC(C)C[C@H](NC(=O)C1(Cc2ccccc2)CC(CNC(=O)c2cccc(C(F)(F)F)c2)=NO1)B(O)O` (stereo partly drawn) [Example 280]: < 10 nM.

As to `CC(C)C[C@H](NC(=O)C1(Cc2ccccc2)CC(CNC(=O)c2ccccc2Cl)=NO1)B(O)O` (stereo partly drawn) [Example 286], the half-inhibitory concentration (IC50) was < 10 nM. Under `CC(C)C[C@H](NC(=O)C1(Cc2ccccc2)CC(CNC(=O)c2ccccc2-c2ccccc2)=NO1)B(O)O` (stereo partly drawn) [Example 97, ((1R)-1-(3-([1,1′-biphenyl]-2-carboxamidomethyl)-5-benzyl-4,5-dihydroisoxazol-5-carboxamido)-3-methylbutyl)boronic acid] stands < 10 nM; under `CC(=O)Nc1cccc(C(=O)NCC2=NOC(Cc3ccccc3)(C(=O)N[C@@H](CC(C)C)B(O)O)C2)c1` (stereo partly drawn) [Example 320], < 10 nM; under `CC(C)C[C@H](NC(=O)C1(Cc2ccccc2)CC(COCc2cccc(-c3ccccc3)c2)=NO1)B(O)O` (stereo partly drawn) [Example 54, ((1R)-1-(3-(([1,1′-biphenyl]-3-ylmethoxy)methyl)-5-benzyl-4,5-dihydroisoxazol-5-carboxamido)-3-methylbutyl)boronic acid], < 10 nM.
